Assay results from patent US11725096B2, “Zinc oxide complexes” (MARY KAY INC., priority 2010, dated 2023).

Experiments:
[1] = cited from earlier work
[2] = Solubility / dissociation of the complexes in water; details: approximately 0.1 g in 10 Ml deionized water, after standing overnight
Description: Zinc oxide and lactic acid were mixed in an ethanol solution (reagent grade ethyl alcohol denatured with methanol and isopropyl alcohol) containing approximately 10% water at room temperature with continuous stirring using a magnetic stirrer. […] The crystals were isolated by filtering.
(§1) Specifically, approximately 0.1 g zinc oxide/lactic acid was dissolved in 10 Ml of deionized water via vortexing. […] Specifically, approximately 0.1 g zinc oxide was mixed in 10 Ml sodium lactate solution (containing approximately 0.88 g sodium lactate in 10 Ml deionized water). The mixture was vortexed to dissolve the particles such that no large visible particles remained.

[3] = assay type: physicochemical
Description: as §1

[4] = Description: To further test solubility of the zinc oxide/lactic acid complexes in a solution comprising lactic acid and water, increasing amounts of lactic acid were added to 0.725 g zinc oxide/lactic acid complexes. Specifically, the following amounts of 88% lactic acid were added to the zinc oxide/lactic acid complexes in 10 Ml deionized water: 0.0273 g, 0.0262 g, 0.0345 g, 0.0575 g, 0.0757 g, 0.1166 g, 0.1562 g, 0.1389 g, 0.1486 g, and 0.2810 g. Approximately 0.3 g zinc oxide/lactic acid complexes were also mixed with 0.0670 g or 0.2517 g 88% lactic acid.

## [O]=[Zn] [Zinc oxide, zinc oxide]
[1]
  solubility in neutral aqueous solutions: nearly insoluble

## CC1[O][Zn]2([OH])([O]C1=O)[O]C(=O)C(C)[O]2 (centres unmarked) [zinc oxide/lactic acid complexes]
[2]
  Ph of the mixture in water: approximately 6
[3]
  solubility in sodium lactate: soluble in sodium lactate
[3]; approximately 0.1 g in 10 Ml sodium lactate solution, overnight
  Ph of the mixture in sodium lactate solution: approximately 6
[4]
  solubility in lactic acid and water (appearance of the mixture): milky mixture that settles upon standing
